Assay results from patent US20060293307A1, “Oxazolidinone derivatives as antimicrobials” (priority 2002, published 2006).
Values after ≈ are worked out from the molar mass of the structure shown.

Test system: M. bovis ATCC 19210
Assay: not given
Assay type: cell-based
Settings: S. No. 18 NTM, Middle Brook 7H10 + OADC, 37° C., 14-21 days

SMILES	MIC
NNC(=O)c1ccncc1 [INH]	0.25 µg/mL
C[C@@H]1CN(c2c(F)c(N)c3c(=O)c(C(=O)O)cn(C4CC4)c3c2F)C[C@H](C)N1 [SPAR]	<0.12 µg/mL
CCc1cc(C(N)=S)ccn1 [ETH]	2.0 µg/mL
CC[C@H]1OC(=O)[C@H](C)[C@@H](O[C@H]2C[C@@](C)(OC)[C@@H](O)[C@H](C)O2)[C@H](C)[C@@H](O[C@@H]2O[C@H](C)C[C@H](N(C)C)[C@H]2O)[C@](C)(OC)C[C@@H](C)C(=O)[C@H](C)[C@@H](O)[C@]1(C)O [CLA]	32 µg/mL

Test system: 139
Assay: MIC, agar incorporation method
Assay type: cell-based
Settings: not given
Procedure, shortened: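 Doubling dilutions of compound in DMSO were incorporated into Mueller-Hinton agar; 10^4 CFU/spot inoculated from 0.5 McFarland suspensions and incubated 18 h (24 h for MRSN studies). MIC = lowest concentration without visible growth; valid only when ATCC reference strains gave in-range MICs.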

SMILES	MIC
CC(=O)NC[C@H]1CN(c2ccc(N3CCOCC3)c(F)c2)C(=O)O1 [Linezolid, reference compound]	1 µg/mL (≈ 2.96 µM)
CC(=O)NC[C@H]1CN(c2ccc(N3CCN(c4ccc(C=O)o4)CC3)c(F)c2)C(=O)O1 [Compound No. 3, (S)—N-[[3-[3-Fluoro-4-[4-(5-formyl-2-furyl)-1-piperazinyl]phenyl]-2-oxo-5-oxazolidinyl]methyl]acetamide]	0.5 µg/mL (≈ 1.16 µM)
CC(=O)NC[C@H]1CN(c2ccc(N3CCN(c4ccc([N+](=O)[O-])s4)CC3)c(F)c2)C(=O)O1 [Compound No. 1, (S)—N-[[3-[3-Fluoro-4-[4-(5-nitro-2-thienyl)-1-piperazinyl]phenyl]-2-oxo-5-oxazolidinyl]methyl]acetamide]	0.25 µg/mL (≈ 0.539 µM)
CN[C@H](CC(C)C)C(=O)N[C@H]1C(=O)N[C@@H](CC(N)=O)C(=O)N[C@H]2C(=O)N[C@H]3C(=O)N[C@H](C(=O)N[C@H](C(=O)O)c4cc(O)cc(O)c4-c4cc3ccc4O)[C@H](O)c3ccc(c(Cl)c3)Oc3cc2cc(c3O[C@@H]2O[C@H](CO)[C@@H](O)[C@H](O)[C@H]2O[C@H]2C[C@](C)(N)[C@H](O)[C@H](C)O2)Oc2ccc(cc2Cl)[C@H]1O [Vancomycin, reference compound]	> 16 µg/mL

Test system: not given
Assay: not given
Settings: not given

SMILES	melting point
CC(=O)NC[C@H]1CN(c2ccc(N3CCN(c4ccc(C=O)o4)CC3)c(F)c2)C(=O)O1 [Compound No. 3, (S)—N-[[3-[3-Fluoro-4-[4-(5-formyl-2-furyl)-1-piperazinyl]phenyl]-2-oxo-5-oxazolidinyl]methyl]acetamide]	176 °C
CC(=O)NC[C@H]1CN(c2ccc(N3CCN(c4ccc(C=O)s4)CC3)c(F)c2)C(=O)O1 [Compound No. 2, (S)—N-[[3-[3-Fluoro-4-[4-(5-formyl-2-thienyl)-1-piperazinyl]phenyl]-2-oxo-5-oxazolidinyl]methyl]acetamide]	180 °C (dec.)
CC(=O)NC[C@H]1CN(c2ccc(N3CCN(c4ccc([N+](=O)[O-])s4)CC3)c(F)c2)C(=O)O1 [Compound No. 1, (S)—N-[[3-[3-Fluoro-4-[4-(5-nitro-2-thienyl)-1-piperazinyl]phenyl]-2-oxo-5-oxazolidinyl]methyl]acetamide]	171 to 174 °C
CC(=O)NC[C@H]1CN(c2ccc(N3CCN(c4ccc([N+](=O)[O-])o4)CC3)c(F)c2)C(=O)O1 [Compound No. 4, (S)—N-[[3-[3-Fluoro-4-[4-(5-nitro-2-furyl)-1-piperazinyl]phenyl]-2-oxo-5-oxazolidinyl]methyl]acetamide]	191 to 204 °C
